# Source: US11872324B2, “Materials and methods for tissue regeneration” (The University Court of the University of Glasgow, priority 2015, dated 2024)
# Experiments:
# [1] = test system: Murine embryonic mesenchymal stem cells (mMSCs) C3H10T1/2; assay: Inhibition of contractility in mMSCs; format: cell-based; settings: for osteogenic marker expression: mMSCs on all substrates, 20 μM inhibitor; for Staining for pMLC / expression of stemness markers (Sca1, CD29): mMSCs; for Staining for pMLC: 10 and 20 μM inhibitor; for expression of stemness markers (Sca1, CD29): 15 days, basal conditions with inhibitor
# VEGFR-2 = VEGFR-2 (Homo sapiens, UniProt P35968)
# Chain of VEGFR-2 (P35968 20-1356): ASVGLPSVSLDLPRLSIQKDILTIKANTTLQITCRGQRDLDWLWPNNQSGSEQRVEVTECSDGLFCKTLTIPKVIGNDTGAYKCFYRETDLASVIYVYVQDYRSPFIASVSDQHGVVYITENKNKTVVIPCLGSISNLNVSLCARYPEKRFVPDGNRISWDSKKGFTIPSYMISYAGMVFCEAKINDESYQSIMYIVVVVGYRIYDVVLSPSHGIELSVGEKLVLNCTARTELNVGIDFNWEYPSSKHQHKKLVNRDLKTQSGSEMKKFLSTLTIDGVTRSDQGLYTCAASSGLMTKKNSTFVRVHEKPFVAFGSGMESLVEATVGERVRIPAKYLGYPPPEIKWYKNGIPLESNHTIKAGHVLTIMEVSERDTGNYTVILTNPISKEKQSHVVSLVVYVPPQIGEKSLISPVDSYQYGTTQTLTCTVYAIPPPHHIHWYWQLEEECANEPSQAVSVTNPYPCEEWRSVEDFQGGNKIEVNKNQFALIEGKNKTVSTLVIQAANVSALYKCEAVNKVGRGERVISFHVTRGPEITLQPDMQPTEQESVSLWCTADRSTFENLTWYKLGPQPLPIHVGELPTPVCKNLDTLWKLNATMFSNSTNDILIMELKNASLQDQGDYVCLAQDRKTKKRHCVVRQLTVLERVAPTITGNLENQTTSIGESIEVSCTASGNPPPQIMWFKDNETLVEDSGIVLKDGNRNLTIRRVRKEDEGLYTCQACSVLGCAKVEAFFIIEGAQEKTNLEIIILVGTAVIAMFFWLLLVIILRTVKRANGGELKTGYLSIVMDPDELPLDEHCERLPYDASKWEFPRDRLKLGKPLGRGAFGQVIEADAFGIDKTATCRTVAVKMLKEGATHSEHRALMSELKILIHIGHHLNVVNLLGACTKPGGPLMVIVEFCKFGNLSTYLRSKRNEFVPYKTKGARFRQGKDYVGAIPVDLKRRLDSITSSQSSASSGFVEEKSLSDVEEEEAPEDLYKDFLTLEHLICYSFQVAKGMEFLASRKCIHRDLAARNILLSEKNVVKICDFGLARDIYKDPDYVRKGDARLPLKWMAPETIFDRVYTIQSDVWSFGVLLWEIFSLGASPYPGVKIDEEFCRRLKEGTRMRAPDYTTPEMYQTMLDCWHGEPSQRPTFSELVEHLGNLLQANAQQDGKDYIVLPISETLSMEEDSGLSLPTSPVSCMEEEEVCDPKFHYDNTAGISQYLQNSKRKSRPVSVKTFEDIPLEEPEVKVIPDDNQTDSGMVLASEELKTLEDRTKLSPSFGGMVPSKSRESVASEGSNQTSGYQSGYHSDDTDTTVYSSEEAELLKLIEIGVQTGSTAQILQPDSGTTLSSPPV
# Experimental: The most direct way to look at VEGF effect on downstream signaling was to assess its receptor phosphorylation. An immunofluorescence test for presence of phosphorylated VEGFR-2 was performed on standard HUVEC culture on tissue plastics, when cells were stimulated with 25 ng/ml of VEGF for two different time periods (2 min and 30 min). […] Therefore it was decided to assay phosphorylation of one of the downstream effectors, ERK1/2 which is activated via MAPK branch of GF receptor signaling.
# ERK1/2 = ERK1/2 phosphorylation ELISA in HUVEC; format: cell-based, human; settings: 30 min
# Experimental: VEGF bound to substrates was assayed indirectly by measuring remaining VEGF in coating solution with a sandwich ELISA kit according to the manufacturer's instructions (DuoSetDY293B, R&D Systems). Levels of phosphorylation of ERK1/2 in HUVECs seeded onto functionalized surfaces were assessed after 30 min incubation using DuoSet ELISA kit following the manufacturer's instructions (DuoSetDYC1018B, R&D Systems). Human umbilical vein endothelial cells (HUVEC) (Cellworks) were maintained in HLVEC complete media (Cellworks). For any experiment, cells with not higher than 10 population doublings were used (usually corresponding up to P5). For network formation experiments, cell seeding density was optimized, and cells were eventually seeded at 10,000 cells/cm^2. Seeding was done on protein-functionalized and control polymer-coated substrates, and cells were left to adhere in a CO2 incubator at 37° C. After 16 h, medium was removed and replaced with fibrinogen solution (20 mg/ml) in HLVEC complete media, containing also 50 U/ml of thrombin and 1.2 mg/ml of aprotinin; to allow complete fibrinogen clotting, samples were placed in CO2 incubator for 1 h. After clotting, fibrin matrix was covered with 0.5 ml HLVEC complete media with 25 ng/ml of VEGF where required, and samples were kept at 37° C. for 6 day period, with media changed every second day.
# [2] = biological target: Fibronectin (FN) from human plasma adsorbed on poly(ethyl acrylate) (PEA), organised into a fibrillar (nano)network (human) (UniProt P02751); assay: sandwich ELISA of BMP-2 released from FN-coated surfaces
# [3] = biological target: Fibronectin (FN) from human plasma adsorbed on poly(ethyl acrylate) (PEA), organised into a fibrillar (nano)network (human) (UniProt P02751); assay: ELISA; BMP-2 adsorbed on FN-coated polymer implant tubes
# [4] = biological target: Fibronectin (FN) from human plasma adsorbed on poly(ethyl acrylate) (PEA), organised into a fibrillar (nano)network (human) (UniProt P02751); assay: ELISA; BMP-2 adsorbed from 5 µg/ml on FN-coated polymer implant tubes
# [5] = test system: Human bone marrow mesenchymal stem cells (hMSCs); assay: Alkaline phosphatase staining of hMSCs; format: cell-based; settings: 28 days, noggin 50 ng/ml
# Experimental: Human bone marrow mesenchymal stem cells (hMSCs) from Promocell were maintained in basal media (αMEM, 10% FBS, 1% P/S, 1% fungizone, 2 mM L-glutamine, 1 ng/ml FGF-2) at 37° C. with 5% CO2. Cells were seeded onto the materials at 10^4 cells/cm2 using seeding media (DMEM high glucose, 1% P/S, 1% FBS,) and media were changed twice a week. For all cultures the first 2 hours (initial cell adhesion) were in absence of serum and GF. Cells were used at passages P0-P3. Each experiment was performed in triplicate.
# Cells were cultured on materials for 28 days. Noggin (50 ng/ml) was added in a set of samples and phosphate deposition was analysed by an Alkaline Phosphatase assay (Sigma, 86C-1KT). Cells were fixed with the fixative solution (citrate-acetone-formaldehide solution) at RT for 30 s. Afterwards, samples were stained with the alkaline-dye mixture and incubated at RT in darkness for 15 min. Samples were counterstained for 2 minutes with neutral red solution and rinsed in tap water.
molecule,measurement,setting,value
C[C@@H](N)[C@H]1CC[C@H](C(=O)Nc2ccncc2)CC1 [Y-27632],osteogenic marker expression,[1],greatly reduced
same,Staining for pMLC,[1],reduced in a dose-dependent manner
same,"expression of stemness markers (Sca1, CD29)",[1],strongly reduced
Cc1ccc2c(c1)C(=O)C1(O)CCN(c3ccccc3)C1=N2 (centres unmarked) [blebbistatin],osteogenic marker expression,[1],greatly reduced
same,Staining for pMLC,[1],reduced in a dose-dependent manner
same,"expression of stemness markers (Sca1, CD29)",[1],strongly reduced
VEGF,phosphorylated VEGFR-2 after 2 min,VEGFR-2,present
same,phosphorylated VEGFR-2 after 30 min,VEGFR-2,no phosphorylation was detected
same,"ERK1/2 phosphorylation, VEGF present in the medium",ERK1/2; PEA samples vs PEA sample without VEGF,did not show any difference
same,"ERK1/2 phosphorylation, VEGF coated on PEA",ERK1/2; vs PEA without bound VEGF,higher level
"BMP-2 (R&D Systems, 355-BM or 355-BM/CF) (ligand, UniProt P12643 283-396, looked up) QAKHKQRKRLKSSCKRHPLYVDFSDVGWNDWIVAPPGYHAFYCHGECPFPLADHLNSTNHAIVQTLVNSVNSKIPKACCVPTELSAISMLYLDENEKVVLKNYQDMVVEGCGCR",BMP-2 released after 14 days,[2],< 10%
same,amount of BMP-2 on the coated tube,[3],15 ng
same,surface density,[4],100 ng/cm^2
noggin: used as BMP-2 inhibitor to prevent activity (50 ng/ml) (protein) QHYLHIRPAPSDNLPLVDLIEHPDPIFDPKEKDLNETLLRSLLGGHYDPGFMATSPPEDRPGGGGGAAGGAEDLAELDQLLRQRPSGAMPSEIKGLEFSEGLAQGKKQRLSKKLRRKLQMWLWSQTFCPVLYAWNDLGSRFWPRYVKVGSCFSKRSCSVPEGMVCKPSKSVHLTVLRWRCQRRGGQRCGWIPIQYPIISECKCSC,PEA driven FN/BMP-2 osteogenic differentiation (ALP),[5],reduced
